Each structure is given as a SMILES string. ≈ marks a conversion by molar mass, not a printed value. Where only a bound is given, the exact number is not on record here.

A short description of data set [1]: Inhibition of Staphylococcus aureus DNA gyrase.
Data set [2] can be described thus: Inhibition of Staphylococcus aureus DNA topoisomerase 4.
The target of data set [3] is Voltage-gated inwardly rectifying potassium channel KCNH2 (Homo sapiens, UniProt Q12809). As to the kind of experiment: Inhibition of human ERG.
Voltage-gated inwardly rectifying potassium channel KCNH2, sequence (Q12809 whole entry): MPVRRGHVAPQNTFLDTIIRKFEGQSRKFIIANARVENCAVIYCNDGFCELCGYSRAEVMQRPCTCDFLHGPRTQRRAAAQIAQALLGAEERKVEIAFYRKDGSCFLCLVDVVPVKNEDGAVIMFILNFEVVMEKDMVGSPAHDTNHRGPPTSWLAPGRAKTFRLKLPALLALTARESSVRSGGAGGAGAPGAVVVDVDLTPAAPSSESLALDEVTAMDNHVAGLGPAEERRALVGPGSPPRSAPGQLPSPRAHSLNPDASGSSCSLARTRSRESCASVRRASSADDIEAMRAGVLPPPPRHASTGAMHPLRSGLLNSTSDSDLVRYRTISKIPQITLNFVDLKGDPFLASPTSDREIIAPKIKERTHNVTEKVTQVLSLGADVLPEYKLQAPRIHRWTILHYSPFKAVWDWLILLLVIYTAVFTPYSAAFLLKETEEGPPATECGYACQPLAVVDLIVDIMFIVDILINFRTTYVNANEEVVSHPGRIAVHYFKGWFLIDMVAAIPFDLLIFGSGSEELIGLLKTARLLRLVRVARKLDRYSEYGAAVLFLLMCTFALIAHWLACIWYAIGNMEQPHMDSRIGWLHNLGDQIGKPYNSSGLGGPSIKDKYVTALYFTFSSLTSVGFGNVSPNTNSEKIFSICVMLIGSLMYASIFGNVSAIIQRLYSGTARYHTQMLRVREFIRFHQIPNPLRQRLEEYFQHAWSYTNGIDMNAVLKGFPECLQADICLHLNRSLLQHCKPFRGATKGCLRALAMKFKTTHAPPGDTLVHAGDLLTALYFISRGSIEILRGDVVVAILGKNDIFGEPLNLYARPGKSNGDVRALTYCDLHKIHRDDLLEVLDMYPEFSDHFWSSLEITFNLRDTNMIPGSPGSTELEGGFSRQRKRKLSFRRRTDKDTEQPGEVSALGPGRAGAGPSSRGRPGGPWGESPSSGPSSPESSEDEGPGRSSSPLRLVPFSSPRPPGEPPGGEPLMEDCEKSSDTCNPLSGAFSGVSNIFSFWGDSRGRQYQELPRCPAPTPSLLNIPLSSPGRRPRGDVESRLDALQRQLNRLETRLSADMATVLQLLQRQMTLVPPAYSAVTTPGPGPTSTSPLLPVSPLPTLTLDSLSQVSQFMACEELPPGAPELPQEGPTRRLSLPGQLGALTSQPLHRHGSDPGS
The subject of data set [4] is Staphylococcus aureus. Nature of the data set: Antibacterial activity against Staphylococcus aureus containing DNA gyrase D83N mutations. The class given is functional.
In data set [5] the test system is Staphylococcus aureus. Nature of the data set: Antibacterial activity against fluoroquinolone-sensitive Staphylococcus aureus 1146. Type of data set: functional.
The subject of data set [6] is Staphylococcus aureus. Nature of the data set: Antibacterial activity against fluoroquinolone-resistant Staphylococcus aureus 1095. The class given is functional.
Data set [7] has as its system Staphylococcus aureus. As to the kind of experiment: Antibacterial activity against Staphylococcus aureus containing DNA gyrase M121K mutations. The class given is functional.
Data set [8] has as its system Staphylococcus aureus. Nature of the data set: Antibacterial activity against Staphylococcus aureus. The class given is functional.
The test system of another data set is Streptococcus pyogenes. Nature of the data set: Antibacterial activity against Streptococcus pyogenes. Type of data set: functional.
Data set [9] in a line: Stability assessed as increase in metabolism rate under in-vitro conditions. Type of data set: physicochemical.
Data set [10] in a line: Ratio of fAUC in fluoroquinolone-resistant Staphylococcus aureus infected mouse neutropenic thigh model to MIC for fluoroquinolone-resistant Staphylococcus aureus.
A short description of data set [11]: Volume of distribution at steady state in mouse at 10 mg/kg, iv. The class given is ADME, organism-based. The conditions noted are these: in vivo, read-out: Vdss.
Data set [12] in a line: Volume of distribution at steady state in rat at 2 mg/kg, iv. Type of data set: ADME, organism-based. The conditions noted are these: in vivo, read-out: Vdss.
Data set [13] can be described thus: Half life in rat at 2 mg/kg, iv. The class given is ADME, organism-based. The conditions noted are these: in vivo.
Data set [14] can be described thus: Fraction unbound in rat plasma. Type of data set: ADME, cell-free.
Data set [15] is described as follows: Clearance in mouse at 10 mg/kg, iv. The class given is ADME, organism-based. The conditions noted are these: in vivo.
Data set [16] can be described thus: Clearance in rat at 2 mg/kg, iv. Type of data set: ADME, organism-based. The conditions noted are these: in vivo.
The nature of data set [17]: Fraction unbound in mouse plasma. Type of data set: ADME, cell-free.
Data set [18] is described as follows: Half life in mouse at 10 mg/kg, iv. The class given is ADME, organism-based. The conditions noted are these: in vivo.
Data set [19] concerns Staphylococcus aureus. As to the kind of experiment: Antibacterial activity against fluoroquinolone-resistant Staphylococcus aureus infected in mouse neutropenic thigh model assessed as static dose required for bacterial stasis. Type of data set: functional.
The nature of data set [20]: Fraction unbound in human plasma. Type of data set: ADME, cell-free.
Data set [21] in a line: Cmax in human. The class given is ADME.

Take `COc1ccc2ncc(F)c([C@@H](O)CC[C@@H]3CCN(C4CC(c5cccc(F)c5F)C4)C[C@@H]3C(=O)O)c2c1` (some centres not stated): the IC50 in data set [1] amounted to 0.78 µM; in [2] it was 7.5 µM; in data set [3] it was 25 µM. Further, the minimal inhibitory concentration (MIC) is 8 mg/L (≈ 15.1 µM) in the data set with Staphylococcus aureus [4], not above 0.0625 mg/L in the data set with Staphylococcus aureus [5], not above 0.0625 mg/L against Staphylococcus aureus [6] and 4 mg/L (≈ 7.57 µM) in the data set on Staphylococcus aureus [7].

Consider `COc1ccc2ncc(F)c([C@@H](O)CC[C@@H]3CCN(C4CC(c5ncccc5F)C4)C[C@@H]3C(=O)O)c2c1` (some centres not stated), for which the IC50 in data set [1] was determined as 6.25 µM; in [2], 30 µM; in data set [3], 10.7 µM. In addition, the results for the MIC90 against Staphylococcus aureus [8] and with Streptococcus pyogenes were 1 mg/L (≈ 1.95 µM) and 2 mg/L (≈ 3.91 µM), respectively. Moreover, the minimal inhibitory concentration (MIC) in the data set on Staphylococcus aureus [4] is 32 mg/L (≈ 62.6 µM); against Staphylococcus aureus [5] it was 0.125 mg/L (≈ 0.244 µM); with Staphylococcus aureus [6], 0.5 mg/L (≈ 0.977 µM); with Staphylococcus aureus [7], 32 mg/L (≈ 62.6 µM).

For the molecule `COc1ccc2ncc(F)c([C@@H](O)CC[C@@H]3CCN(C4CC(c5cccc(F)c5)C4)C[C@@H]3C(=O)O)c2c1` (some centres not stated), the IC50 in [1] worked out at 0.78 µM; in [2], 19 µM. In addition, the MIC90 amounted to 0.25 mg/L (≈ 0.49 µM) with Staphylococcus aureus [8] and 0.5 mg/L (≈ 0.979 µM) against Streptococcus pyogenes. Also, the MIC was 16 mg/L (≈ 31.3 µM) in the data set with Staphylococcus aureus [4], not above 0.0625 mg/L against Staphylococcus aureus [5], 0.25 mg/L (≈ 0.49 µM) in the data set on Staphylococcus aureus [6] and 16 mg/L (≈ 31.3 µM) against Staphylococcus aureus [7].

With `COc1ccc2ncc(F)c([C@@H](O)CC[C@@H]3CCN(C4CC(c5cc(F)cc(F)c5F)C4)C[C@@H]3C(=O)O)c2c1` (some centres not stated), the Stability entry in [9] is reported as “Unstable”. In addition, the IC50 in data set [1] was determined as 1.56 µM; in data set [2] it was 4.7 µM. Also, the minimum inhibitory concentration (MIC) against Staphylococcus aureus [4] is 1 mg/L (≈ 1.83 µM); in the data set on Staphylococcus aureus [5], not above 0.0625 mg/L; against Staphylococcus aureus [6] it was not above 0.0625 mg/L; with Staphylococcus aureus [7] it was 2 mg/L (≈ 3.66 µM).

As for `COc1ccc2ncc(F)c(C[C@H](O)[C@@H]3CC[C@@H](NCc4cc5c(nn4)OCCS5)CO3)c2n1`, the Ratio in [10] was 43.

As to `COc1ccc2ncc(F)c([C@@H](O)CC[C@@H]3CCN(C4CC(c5cc(F)cc(F)c5)C4)C[C@@H]3C(=O)O)c2c1` (some centres not stated), the IC50 in [1] worked out at 1.2 µM; in [2], 6.25 µM. Also, the results for the MIC90 in the data set with Staphylococcus aureus [8] and in the data set on Streptococcus pyogenes were 0.25 mg/L (≈ 0.473 µM) and 1 mg/L (≈ 1.89 µM), respectively. Further, the minimum inhibitory concentration (MIC) against Staphylococcus aureus [4] was determined as 5.7 mg/L (≈ 10.8 µM); in the data set on Staphylococcus aureus [5] it was 0.125 mg/L (≈ 0.236 µM); in the data set with Staphylococcus aureus [6] it was 0.35 mg/L (≈ 0.662 µM).

Consider `COc1ccc2ncc(F)c([C@@H](O)CC[C@@H]3CCN(C4CC(c5cncc(F)c5)C4)C[C@@H]3C(=O)O)c2c1` (some centres not stated), for which the IC50 was 4.7 µM in data set [1] and more than 120 µM in [2]. For the same molecule, the MIC with Staphylococcus aureus [4] is more than 64 mg/L; against Staphylococcus aureus [5] it was 2 mg/L (≈ 3.91 µM); in the data set on Staphylococcus aureus [6], 32 mg/L (≈ 62.6 µM).

On to `COc1ccc2ncc(F)c([C@@H](O)CC[C@@H]3CCN(C4CC(c5ccno5)C4)C[C@@H]3C(=O)O)c2c1` (some centres not stated), for which the IC50 was 2.68 µM in data set [1], 35.1 µM in data set [2] and more than 300 µM in [3]. Further, the MIC against Staphylococcus aureus [4] is more than 64 mg/L; against Staphylococcus aureus [5] it was 0.5 mg/L (≈ 1.03 µM); against Staphylococcus aureus [6], 4 mg/L (≈ 8.27 µM).

As to `COc1ccc2ncc(F)c([C@@H](O)CC[C@@H]3CCN(C4CC(c5ccc(F)s5)C4)C[C@@H]3C(=O)O)c2c1` (some centres not stated), the half-inhibitory concentration (IC50) in data set [1] is 0.78 µM; in [2], 19 µM. Also, the MIC90 turned out to be 0.125 mg/L (≈ 0.242 µM) in the data set with Staphylococcus aureus [8] and 0.5 mg/L (≈ 0.968 µM) with Streptococcus pyogenes. The MIC in the data set with Staphylococcus aureus [4] was 16 mg/L (≈ 31 µM); against Staphylococcus aureus [5], not above 0.0625 mg/L; with Staphylococcus aureus [6], not above 0.0625 mg/L; against Staphylococcus aureus [7] it was 16 mg/L (≈ 31 µM).

Regarding `COc1ccc2ncc(F)c([C@@H](O)CC[C@@H]3CCN(C4CC(c5ccccc5)C4)C[C@@H]3C(=O)O)c2c1` (some centres not stated), the figures for the Vd in data set [11] and in [12] were 1.01 L/kg and 1.82 L/kg, respectively. Moreover, the IC50 in [1] is 1.15 µM; in [2] it was 15.9 µM; in data set [3] it was 22.3 µM. Besides, the MIC90 worked out at 0.25 mg/L (≈ 0.508 µM) in the data set with Staphylococcus aureus [8] and 1 mg/L (≈ 2.03 µM) in the data set with Streptococcus pyogenes. Besides, the MIC against Staphylococcus aureus [4] is 22.6 mg/L (≈ 45.9 µM); with Staphylococcus aureus [5], 0.069 mg/L (≈ 0.14 µM); in the data set with Staphylococcus aureus [6] it was 0.125 mg/L (≈ 0.254 µM); in the data set with Staphylococcus aureus [7] it was 8 mg/L (≈ 16.2 µM). For the same molecule, the half-life in data set [13] was 68.4 min; in [18], 40.2 min. Also, the fraction unbound in data set [14] was 0.277 to 0.334; in data set [17], 0.15 to 0.158; in data set [20], 0.122 to 0.211. In addition, the clearance in data set [15] is 1.04 L/h/kg; in [16], 1.1 L/h/kg. Moreover, the Activity in the data set with Staphylococcus aureus [19] was found to be 92.1 mg/kg/day.

In [3], `O=c1ccc2ncc(=O)n3c2n1C[C@H]3CN1CCC(NCc2cc3c(cn2)OCCC3)CC1` [GEPOTIDACIN] gave a half-inhibitory concentration (IC50) of 1310 µM. The molecule also had an MIC against Staphylococcus aureus [4] of 8 to 32 mg/L (≈ 17.8 to 71.3 µM). For the same molecule, the Cmax in [21] was in the range of 7 to 13 µg/mL. Also, in data set [10], the Ratio stood at 13.4.

For `CN[C@H](CC(C)C)C(=O)N[C@H]1C(=O)N[C@@H](CC(N)=O)C(=O)N[C@H]2C(=O)N[C@H]3C(=O)N[C@H](C(=O)N[C@H](C(=O)O)c4cc(O)cc(O)c4-c4cc3ccc4O)[C@H](O)c3ccc(c(Cl)c3)Oc3cc2cc(c3O[C@@H]2O[C@H](CO)[C@@H](O)[C@H](O)[C@H]2O[C@H]2C[C@](C)(N)[C@H](O)[C@H](C)O2)Oc2ccc(cc2Cl)[C@H]1O` [VANCOMYCIN], in the data set on Staphylococcus aureus [19], the Activity is given as 29 mg/kg/day.

Usually IC50 stands for the concentration at which inhibition is half-maximal. Low values mean inhibition by little substance, high ones a need for much substance. The term MIC denotes the least concentration at which growth counts as inhibited. A high value points to a need for much substance. As a reminder, the MIC90 is the lowest concentration that inhibits either 90% of growth or 90% of the strains tested, depending on the study. A lower MIC90 goes with greater potency. The term half-life denotes the time needed for the level to fall by half in the phase considered. A lower half-life goes with rapid decline. The term fraction unbound denotes the share of the substance not bound to proteins or other matrix. Higher therefore signals much free substance. One may read the clearance as a measure of how efficiently the substance is removed, as volume per time. A high value points to a high capacity for elimination. In general, Cmax refers to the peak of the concentration-time curve.

The values are drawn from ChEMBL document CHEMBL4033742, “Novel 3-fluoro-6-methoxyquinoline derivatives as inhibitors of bacterial DNA gyrase and topoisomerase IV” (Bioorg Med Chem Lett, 2017).
